From ChEMBL document CHEMBL1201862, “PubChem BioAssay data set” (2004)
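Exposure lasted 48 hours, with cells grown in 96-well plates and compounds tested at five concentrations. GI50 = concentration required for 50% inhibition of growth.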 The source made the active and inactive calls. No stated cut-off is given here; in the data, active = GI50 up to about 1.1 µM and inactive = higher.

Legend:
Assay in all cases: inhibition of tumour cell growth, NCI panel, 48 h
UACC-62 = tested on: UACC-62
SNB-75 = tested on: SNB-75
MDA-N = tested on: MDA-N
SK-MEL-28 = tested on: SK-MEL-28
SNB-19 = tested on: SNB-19
SK-OV-3 = tested on: SK-OV-3
HOP-92 = tested on: HOP-92
786-0 = tested on: 786-0
ACHN = tested on: ACHN
SK-MEL-5 = tested on: SK-MEL-5
NCI/ADR-RES = tested on: NCI/ADR-RES
MDA-MB-435 = tested on: MDA-MB-435
A549 = tested on: A549
SN12C = tested on: SN12C
NCI-H226 = tested on: NCI-H226
Malme-3M = tested on: Malme-3M
DU-145 = tested on: DU-145
K562 = tested on: K562
SF-539 = tested on: SF-539
HL-60 = tested on: HL-60

Measured: GI50

O=C1c2ccccc2C(=O)c2c(Nc3cc4c5c(ccc6c7ccc8c9c(cc(Nc%10cccc%11c%10C(=O)c%10ccccc%10C%11=O)c(c3c56)c97)-c3ccccc3C8=O)C(=O)c3ccccc3-4)cccc21
inactive: UACC-62 > 100 µM | SNB-75 17.6 µM | MDA-N > 100 µM | SK-MEL-28 > 100 µM | SNB-19 29.9 µM | SK-OV-3 16.6 µM | HOP-92 41.8 µM | 786-0 29.2 µM | ACHN 36.1 µM | SK-MEL-5 > 100 µM | NCI/ADR-RES 49.1 µM | MDA-MB-435 41.1 µM | A549 61.7 µM | SN12C > 100 µM | NCI-H226 > 100 µM | Malme-3M > 100 µM | DU-145 > 100 µM | K562 75 µM

CCOC(=O)O/C(=C\c1ccc(OC)cc1)c1c(OC(=O)OCC)n(C(=O)OCC)c2ccccc12
inactive: UACC-62 42.7 µM | SNB-75 25.1 µM | MDA-N 19.3 µM | SK-MEL-28 19.6 µM | SF-539 34.8 µM | HL-60 > 100 µM | SK-OV-3 41.5 µM | 786-0 39.5 µM | ACHN 29.1 µM | SK-MEL-5 39 µM | NCI/ADR-RES 43.9 µM | MDA-MB-435 24.9 µM | A549 34.4 µM | SN12C 31.6 µM | NCI-H226 32.9 µM | Malme-3M 58.6 µM | DU-145 42.2 µM | K562 2.77 µM

C1CN(c2nc3c(nnc4nc(N5CCOCC5)sc43)s2)CCO1
inactive: UACC-62 > 100 µM | MDA-N > 100 µM | SK-MEL-28 > 100 µM | SF-539 > 100 µM | SNB-19 89.1 µM | HL-60 > 100 µM | HOP-92 29.4 µM | 786-0 > 100 µM | ACHN > 100 µM | SK-MEL-5 > 100 µM | NCI/ADR-RES > 100 µM | MDA-MB-435 > 100 µM | A549 > 100 µM | SN12C 96.6 µM | NCI-H226 84.7 µM | Malme-3M 37.2 µM | DU-145 > 100 µM | K562 > 100 µM

[N-]=[N+]=NC[C@H]1OCO[C@H](CN=[N+]=[N-])[C@H]2OCCOCCOc3ccccc3OCCOCCO[C@@H]21
inactive: UACC-62 > 100 µM | SNB-75 76.4 µM | MDA-N > 100 µM | SK-MEL-28 > 100 µM | SF-539 > 100 µM | SNB-19 > 100 µM | HL-60 > 100 µM | SK-OV-3 > 100 µM | 786-0 > 100 µM | SK-MEL-5 > 100 µM | NCI/ADR-RES > 100 µM | MDA-MB-435 > 100 µM | A549 > 100 µM | SN12C > 100 µM | NCI-H226 > 100 µM | Malme-3M > 100 µM | DU-145 > 100 µM | K562 > 100 µM

COC(OC)(c1ccccc1)C(Br)Br
inactive: UACC-62 55.1 µM | SNB-75 81.1 µM | MDA-N 31.7 µM | SK-MEL-28 > 100 µM | SF-539 > 10 µM | SNB-19 > 100 µM | HL-60 23.6 µM | SK-OV-3 > 100 µM | 786-0 23.2 µM | ACHN > 100 µM | SK-MEL-5 67.5 µM | NCI/ADR-RES 51.8 µM | MDA-MB-435 20.2 µM | A549 > 100 µM | SN12C > 100 µM | NCI-H226 > 100 µM | Malme-3M 16.7 µM | DU-145 > 100 µM | K562 13.9 µM

CN(CCNC(=O)c1c[nH]c2c1Cc1ccccc1-2)CCNC(=O)c1c[nH]c2c1Cc1ccccc1-2
inactive: UACC-62 18 µM | MDA-N 15.2 µM | SK-MEL-28 48.5 µM | SF-539 19.5 µM | SNB-19 58.2 µM | HL-60 31 µM | HOP-92 22.6 µM | 786-0 20.6 µM | ACHN 43.6 µM | SK-MEL-5 21.8 µM | NCI/ADR-RES 29.4 µM | MDA-MB-435 17.1 µM | A549 43.2 µM | SN12C 66.4 µM | NCI-H226 24.6 µM | Malme-3M 82.8 µM | DU-145 60.1 µM | K562 30.3 µM

COc1ccc2c(c1)C(=O)CC1c3cnccc3C(=O)N21 (stereo not drawn)
inactive: UACC-62 > 63.7 µM | SNB-75 > 100 µM | MDA-N > 100 µM | SK-MEL-28 > 91.2 µM | SF-539 > 100 µM | SNB-19 > 72.1 µM | SK-OV-3 > 100 µM | HOP-92 > 100 µM | 786-0 > 100 µM | ACHN > 100 µM | SK-MEL-5 > 100 µM | NCI/ADR-RES > 100 µM | MDA-MB-435 > 31.6 µM | A549 > 100 µM | SN12C > 100 µM | NCI-H226 > 100 µM | Malme-3M > 100 µM | DU-145 > 100 µM | K562 > 94.8 µM
